A short description of series [1]: reaction with atmospheric oxygen (antioxidant action). The series is classed as physicochemical. Particulars: in solution and in solid form. An excerpt: The compounds of the formula (I) can also be used as antioxidants. Antioxidants (oxidation inhibitors) are organic compounds which inhibit or prevent undesired changes in the substances to be protected caused by the effects of oxygen. Antioxidants are needed, for example, in plastics for protection against ageing, in fats for protection against rancidity, in oils against resinification, in aromatic substances against odor impairment, in foodstuffs, and in pharmaceuticals. The action of the antioxidants usually consists in acting as radical scavengers for the free radicals occurring in the oxidation. The antioxidative action of atrovenetin (compound of the formula (III)) has already been described by Y. Ishikawa et al. (J. Am. Oil Chem. Soc. 68, 666-668, 1991). Microbial antioxidants, however, are often too weak or not highly tolerable in their action. There is therefore a great need for novel, efficacious and tolerable antioxidants. […] This increased affinity of penilenone for oxygen, however, is decidedly advantageous for very oxidation-sensitive substances.

Series [2] relates to Streptomyces murinus. Briefly: agar diffusion test (antibiogram on solid nutrient plates with antibiotic diffusion). The series is classed as cell-based. The settings on record: agar plate containing Streptomyces murinus culture. As for the experimental part: Moreover to be emphasized is an antimicrobial inhibitory action of the compounds of formula (I) according to the invention on bacteria, such as, for example, Staphylococcus aureus, Streptomyces murinus and against fungi, such as Aspergillus niger, which can cause stubborn, life-threatening infectious diseases. […] Thus, penilenone on an agar plate containing Streptomyces murinus culture in a solution of 1 mg per mL causes an inhibition halo of 11 mm and in a solution of 0.1 mg per mL an inhibition halo of 8 mm. The compounds of the formula (I) according to the invention are therefore likewise suitable for the treatment and/or prophylaxis of bacterial infections and/or fungal diseases (micosis or mycoses).

The nature of series [3]: solubility (physicochemical properties). An excerpt: (§1) The melting point is not determinable because of decomposition. Stable in mildly acidic medium under reducing conditions. Under the influence of oxygen, penilenone turns green in neutral medium or in the presence of amines.
Series [4] is described as follows: stability (physicochemical properties).
From the text: as §1

Structures are written as SMILES.

Regarding `Cc1cc(O)c2c3c(c(O)c4c(c13)OC(C)C4(C)C)C(O)=C(O)C2=O` (centres unmarked) [atrovenetin, reference compound], the “reaction with atmospheric oxygen” value in series [1] was “reacts only slowly with atmospheric oxygen”.
Consider `Cc1cc(O)c2c3c(c(O)cc(O)c13)C(O)=C(O)C2=O` [penilenone], for which the inhibition halo in series [2] (solution of 0.1 mg per mL) is listed as 8 mm; in series [2] (solution of 1 mg per mL) it was 11 mm. Besides, in series [1], the “reaction with atmospheric oxygen” value is reported as “combines with oxygen within seconds or in a few minutes”. The “solubility in organic solvents” value in series [3] (medium polar and polar organic solvents) was “soluble in medium polar and polar organic solvents”. Besides, in series [3] (water), the solubility in water entry is “not very soluble in water”. Also, the stability entry in series [4] (mildly acidic medium under reducing conditions) is “Stable”. For the same molecule, the “behaviour under the influence of oxygen” value in series [4] (neutral medium or in the presence of amines) is on record as “turns green”.
